This is an account of results in ChEMBL document CHEMBL4673356, “Assessing the cellular toxicity of peptide inhibitors of intracellular protein-protein interactions by microinjection” (Bioorg Med Chem, 2021).

Structures are written as SMILES. Where a SMILES comes first, the peptide text is derived from it. [ ]: non-standard residue; d: D form. The star is where a group is joined. X1 = CCN1/C(=C/C=C/C=C/C2=[N+](CCCCCC(=O)*)c3ccc(S(=O)(=O)[O-])cc3C2(C)C)C(C)(C)c2cc(S(=O)(=O)O)ccc21; βAla = NCCC(=O)O

The nature of data set [1]: Stability of the compound in human AD293 cells assessed as intact compound remaining at 20 uM measured after 5 hrs by LC-MS analysis. Conditions: read-out: Stabilty; call rule not given here. It is filed as ADME, cell-based.
Data set [2] in a line: Stability of the compound in human AD293 cells assessed as intact compound remaining at 20 uM measured after 24 hrs by LC-MS analysis. The format is ADME, cell-based. The settings on record: read-out: Stabilty.
A short description of data set [3]: Inhibition of iNOS (unknown origin) and SPSB2 interaction assessed as binding affinity to murine SPSB2 immobilized on CM5 chip by SPR assay. Also noted: species or system Mus musculus. In general terms: Surface plasmon resonance follows binding to a sensor surface in real time, without labels.
The test system of data set [4] is AD293. Kind of data set: Cytotoxicity against human AD293 cells assessed as cell viability at 2.7 to 273 uM co-treated via microinjection with Cy5-BSA into cytoplasm and measured after 5 hrs by Cy5-BSA/PI staining based fluorescence analysis. Conditions: ad293, 5 h, dose 2.7-273 µM.
Data set [5] deals with AD293. Description: Cytotoxicity against human AD-293 cells assessed as morphologically intact viable cells at 2.7 to 273 uM co-treated via microinjection with Cy5-BSA into cytoplasm and measured after 5 hrs by Cy5-BSA/PI staining based fluorescence analysis. It is filed as cell-based. The settings on record: ad293, 5 h, dose 2.7-273 µM.
Data set [6] deals with AD293. Description: Cytotoxicity against human AD293 cells assessed as cell viability at 2.7 to 273 uM co-treated via microinjection with Cy5-BSA into nucleus and measured after 5 hrs by Cy5-BSA/PI staining based fluorescence analysis. The settings on record: ad293, 5 h, dose 2.7-273 µM.
Data set [7] has as its system AD293. Description: Cytotoxicity against human AD293 cells assessed as cell viability at 200 uM. The format is cell-based. Conditions: ad293, 200 µM.
A short description of data set [8]: Drug localization in cytosol of human AD293 cells at 7.3 uM treated via microinjection into cytoplasm measured up to 5 hrs by confocal microscopic analysis. The format is ADME, subcellular.

What is called Kd is the equilibrium constant for the complex coming apart. In the case of `CC[C@H](C)[C@@H]1NC(=O)[C@H](CC(=O)O)NC(=O)[C@H](Cc2c[nH]c3ccccc23)NC(=O)CCNC(=O)[C@H](CC(N)=O)NC(=O)[C@H](CC(N)=O)NC(=O)[C@H](CC(N)=O)NC1=O` (cyclo(DINNN[βAla]W)), the remaining at 5 h, 20 µM in data set [1] amounted to 97.5%. In data set [2], the remaining at 24 h, 20 µM was 94.7%. Moreover, in data set [3], the Kd came to 21 nM. The Activity entry in data set [4], in data set [5], in data set [6] and in data set [7] was “Non-Toxic” in each case.
For the compound `CCN1/C(=C/C=C/C=C/C2=[N+](CCCCCC(=O)NCCCC[C@@H]3NC(=O)[C@H](CC(=O)O)NC(=O)[C@H](Cc4c[nH]c5ccccc45)NC(=O)CCNC(=O)[C@H](CC(N)=O)NC(=O)[C@H](CC(N)=O)NC(=O)[C@H](CC(N)=O)NC3=O)c3ccc(S(=O)(=O)[O-])cc3C2(C)C)C(C)(C)c2cc(S(=O)(=O)O)ccc21` (cyclo(DK(X1)NNN[βAla]W)), the equilibrium dissociation constant (Kd) in data set [3] came out at 110 nM. Besides, in data set [8], the Drug uptake entry is listed as “Active”.
